Where two headings read alike, the source gives them in different places.
Tests used:
[1] = target: T1, CD40:CD154 interaction (Homo sapiens, UniProt P29965); assay: Binding assay (ELISA): compound binds CD154 and inhibits binding of biotin-CD154 to immobilized CD40-Ig (Example 7); settings: read-out: IC50 for CD40:CD154 binding interruption
T1 construct: made in house; host or cells: Pichia (CD40-Ig only)
T1 sequence (P29965 116-261 limits assumed): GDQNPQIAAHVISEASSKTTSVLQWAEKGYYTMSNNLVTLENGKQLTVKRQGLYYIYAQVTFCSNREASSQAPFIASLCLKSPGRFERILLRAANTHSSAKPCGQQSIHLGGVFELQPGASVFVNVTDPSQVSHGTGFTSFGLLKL
Text: (§1) IC50, as used herein, is the concentration at which a compound interrupts the interaction of a protein and its receptor to 50% interaction in the assay shown in Example 7 (for interruption of CD40:CD154 interaction) and Example 8 (for interruption of TNF-α:TNFRp60 interaction). Examples of such protein and receptor pairs are CD40:CD154 and TNF-α:TNFRp60.
Binding Assay to Assess whether a compound Binds CD154 and Inhibits CD40:CD154 Interaction
1) Ninety-six well plates of Nunc Maxisorp were coated with 100 μl of 5-10 μg/ml human CD40-Ig produced in Pichia cells, (in PBS pH 7.2) per well, covered with plate sealers (Costar, Cat. No. 3095) and stored overnight at 4° C.
2) The CD40-Ig-coated plates were shook out and blotted dry.
3) The CD40-Ig-coated plates were blocked with 300 μl per well of PBS (0.05% Tween-20, 1% BSA, pH 7.2) at RT for one hour or in the refrigerator for up to 3 weeks.
4) The CD40-Ig-coated plates were washed 3× with PBS+0.05% Tween-20 pH 7.4 with plate washer at RT.
5) The plates were optionally blotted dry.
6) Primary Screening of compounds: • a. Compounds were titrated in 100 mM Hepes+0.005% BSA pH 7.2 in Titertube (Bio-Rad Laboratories) and 50 μl of titrated compounds was then added into each well of the plate. IC50 parameters: • One 7 point curve per compound was generated where each point was run in triplicate. […] Fifty μl/well of 0.07-1.6 μg/ml biotin-CD154 in 100 mM Hepes+0.005% BSA (pH 7.2) was added per well. Final concentration of biotin-CD154 was […]. It was mixed with compound in each well in the plate. • c. The plates were covered with plate sealer and incubated for one-hour at RT.
7) The plates were washed 3× with plate washer with PBS+0.05% Tween-20 (pH 7.4) at RT.
8) The plates were optionally blotted dry.
9) 100 μl of a 1/300,000 dilution of HRP-Strep/Avidin (Jackson Immuno Research Code3 #016-030-084) was added to each well. Dilution buffer was: PBS+0.05% Tween-20. The plates were covered with plate sealer and incubated for one hour at room temperature.
10) The plates were washed with plate washer 3× at RT.
11) The plates were optionally blotted dry.
12) 100 μl/well of TMB(1-component) (Kirkegarrd & Perry Labs, Prod #50-76-04) was added to each well and incubated at RT about 10 min.
13) 100 μl/well of 0.18M H2SO4 was added to stop reaction in the plates.
14) The plates were read within 30 minutes of stopping the reaction at […] on a microplate reader (Molecular Devices Co.).
Compounds that bound to CD154 and blocked CD40:CD154 interaction prevented CD154 from binding to immobilized CD40-Ig and gave a low absorbance reading.
• 1. Total reaction: Reaction well contained 50 μl of 100 mM Hepes/0.005% BSA (no test compound) • 2. Positive control: Reaction well contained 10 μl of 1 mg/ml 5c8 (anti-CD154 mAb) and 50 μl of 100 mM Hepes/0.005% BSA. • 3. Blank control: Reaction well contained 100 μl 100 mM Hepes/0.005% BSA. • 4. Compound control: Titration series in triplicate of BIO-002108-00.

[2] = target: T2, TNF-α:TNFRp60 interaction (Homo sapiens, UniProt P01375); assay: Binding assay (ELISA): compound inhibits binding of biotin-TNF-α to immobilized TNFRp60 (Example 8); settings: average value; read-out: IC50 for TNF-α:TNFRp60 binding interruption
T2 construct: purchased R&D System
T2 sequence (P01375 77-233 limits assumed, species assumed): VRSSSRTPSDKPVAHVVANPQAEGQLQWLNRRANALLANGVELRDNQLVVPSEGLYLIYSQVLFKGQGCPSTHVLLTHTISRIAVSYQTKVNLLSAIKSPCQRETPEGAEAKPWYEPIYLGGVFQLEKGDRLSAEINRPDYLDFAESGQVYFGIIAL
Text: as §1
Binding Assay to Assess whether a Compound Binds to TNF-α and Inhibits TNF-α/TNFRp60 Interaction
1) Ninety-six well plates of Nunc Maxisorp were coated with 100 μl/well of 0.6 ug/ml tumor necrosis factor receptor p60 (TNFRp60) (Browning, J. L.; Douglas, I.; Ngam-ek, A.; Bourdon, P. R.; Ehrenfels, B. N.; Miatkowski, K.; Zafari, M.; Yampaglia, A. M.; Lawton, P.; Meier, W.; Benjamin, C. P.; Hession, C. J. Immunol. 1995, 154, 33-46) in PBS, pH 7.2, covered with plate sealers (Costar, Cat. No. 3095) and stored overnight at 4° C.
2) The coated plates were shook out and blotted dry.
3) TNFRp60-coated plates were blocked with 300 μl per well of PBS (0.05% Tween-20, 1% BSA, made from media prep) at 4° C. for one hour. Plates were stored for 3 weeks at 4° C. […]
14) The plates were read within 30 minutes of adding stop reagent at […] by microplate reader (Molecular Devices Co.) […]
Compounds that blocked TNF-α/TNFRp60 interaction prevented TNF-α from binding to immobilized TNFRp60 and gave a low absorbance reading. […]

[3] = compounds 'shown to have' the IC50 range, assay of Example 7, top concentration 125 μM
[4] = compounds 12 and 14-21: 'considered to have' the IC50 range (not worded as 'shown')

SMILES	IC50 [1, 3]	IC50 [1, 4]	further results
CCC(C)C(NC(=O)c1cc(-c2cc(C(=O)NCc3ccccc3Br)nc(C(=O)N3CCCC3CN3CCCC3)c2)cc(C(=O)N2CCCC2CN2CCCC2)n1)C(=O)O (stereo not shown) [Compound 1]	50 to 125 µM	–	–
O=C(NC1CCc2ccccc21)c1cc(-c2cc(C(=O)NC(C(=O)O)C3CCCCC3)nc(C(=O)N3CCCC3CN3CCCC3)c2)cc(C(=O)N2CCCC2CN2CCCC2)n1 (stereo not shown) [Compound 12]	–	50 to 125 µM	–
O=C(NCCCc1ccc(Br)cc1)c1cc(-c2cc(C(=O)N[C@H](C(=O)O)C3CCCCC3)nc(C(=O)N3CCC[C@H]3CN3CCCC3)c2)cc(C(=O)N2CCC[C@H]2CN2CCCC2)n1 [Compound 14]	–	50 to 125 µM	–
O=C(NCc1ccc2ccccc2c1)c1cc(-c2cc(C(=O)N[C@H](C(=O)O)C3CCCCC3)nc(C(=O)N3CCC[C@H]3CN3CCCC3)c2)cc(C(=O)N2CCC[C@H]2CN2CCCC2)n1 [Compound 13]	50 to 125 µM	–	–
O=C(NCCCc1ccc([N+](=O)[O-])cc1)c1cc(-c2cc(C(=O)NC(C(=O)O)C3CCCCC3)nc(C(=O)N3CCCC3CN3CCCC3)c2)cc(C(=O)N2CCCC2CN2CCCC2)n1 (stereo not shown) [Compound 7]	50 to 125 µM	–	–
O=C(NCCCc1ccccc1)c1cc(-c2cc(C(=O)NC(C(=O)O)C3CCCCC3)nc(C(=O)N3CCCC3CN3CCCC3)c2)cc(C(=O)N2CCCC2CN2CCCC2)n1 (stereo not shown) [Compound 4]	< 50 µM	–	–
O=C(NCCC(c1ccccc1)c1ccccc1)c1cc(-c2cc(C(=O)N[C@H](C(=O)O)C3CCCCC3)nc(C(=O)N3CCC[C@H]3CN3CCCC3)c2)cc(C(=O)N2CCC[C@H]2CN2CCCC2)n1 [Compound 5]	< 50 µM	–	–
Nc1ccc(CCCNC(=O)c2cc(-c3cc(C(=O)NC(C(=O)O)C4CCCCC4)nc(C(=O)N4CCCC4CN4CCCC4)c3)cc(C(=O)N3CCCC3CN3CCCC3)n2)cc1 (stereo not shown) [Compound 8]	50 to 125 µM	–	–
CCC(C)C(NC(=O)c1cc(-c2cc(C(=O)NC(C)(C)Cc3ccc(F)cc3)nc(C(=O)N3CCCC3CN3CCCC3)c2)cc(C(=O)N2CCCC2CN2CCCC2)n1)C(=O)O (stereo not shown) [Compound 3]	> 125 µM	–	–
O=C(Nc1cccc(S(=O)(=O)Nc2cc3ccccc3cc2C(=O)O)c1)Nc1cccc(S(=O)(=O)Nc2cc3ccccc3cc2C(=O)O)c1 [BIO-002108-00, reference compound]	< 50 µM	–	IC50 [2]: > 125 µM
Nc1cccc(C(CCNC(=O)c2cc(-c3cc(C(=O)NC(C(=O)O)C4CCCCC4)nc(C(=O)N4CCCC4CN4CCCC4)c3)cc(C(=O)N3CCCC3CN3CCCC3)n2)c2ccccc2)c1 (stereo not shown) [Compound 10]	50 to 125 µM	–	–
O=C(NCCC(c1ccccc1)c1ccc([N+](=O)[O-])cc1)c1cc(-c2cc(C(=O)NC(C(=O)O)C3CCCCC3)nc(C(=O)N3CCCC3CN3CCCC3)c2)cc(C(=O)N2CCCC2CN2CCCC2)n1 (stereo not shown) [Compound 11]	< 50 µM	–	–
CCC(C)C(NC(=O)c1cc(-c2cc(C(=O)NCc3cccc(OC)c3OC)nc(C(=O)N3CCCC3CN3CCCC3)c2)cc(C(=O)N2CCCC2CN2CCCC2)n1)C(=O)O (stereo not shown) [Compound 2]	> 125 µM	–	–
O=C(NCc1cccc(-c2ccccc2)c1)c1cc(-c2cc(C(=O)N[C@H](C(=O)O)C3CCCCC3)nc(C(=O)N3CCC[C@H]3CN3CCCC3)c2)cc(C(=O)N2CCC[C@H]2CN2CCCC2)n1 [Compound 6]	< 50 µM	–	–

Now from value to compound, other results behind:

IC50 [1, 3]	IC50 [1, 4]	SMILES	further results
–	< 50 µM	O=C(NCCCCc1ccccc1)c1cc(-c2cc(C(=O)N[C@H](C(=O)O)C3CCCCC3)nc(C(=O)N3CCC[C@H]3CN3CCCC3)c2)cc(C(=O)N2CCC[C@H]2CN2CCCC2)n1 [Compound 15]	–
–	50 to 125 µM	CCC(C)C(NC(=O)c1cc(-c2cc(C(=O)NCc3ccccc3Br)nc(C(=O)N3CCCC3CN(C)C3CCCCC3)c2)cc(C(=O)N2CCCC2CN(C)C2CCCCC2)n1)C(=O)O (stereo not shown) [Compound 18]	–
–	50 to 125 µM	O=C(NC/C=C/c1ccccc1)c1cc(-c2cc(C(=O)NC(C(=O)O)C3CCCCC3)nc(C(=O)N3CCCC3CN3CCCC3)c2)cc(C(=O)N2CCCC2CN2CCCC2)n1 (stereo not shown) [Compound 16]	–
–	50 to 125 µM	CC(C)(C)[C@H](NC(=O)c1cc(-c2cc(C(=O)NCCCc3ccccc3)nc(C(=O)N3CCC[C@H]3CN3CCCC3)c2)cc(C(=O)N2CCC[C@H]2CN2CCCC2)n1)C(=O)O [Compound 21]	–
–	50 to 125 µM	COC(=O)[C@@H](NC(=O)c1cc(-c2cc(C(=O)NCCCc3ccccc3)nc(C(=O)N3CCC[C@H]3CN3CCCC3)c2)cc(C(=O)N2CCC[C@H]2CN2CCCC2)n1)C1CCCCC1 [Compound 20]	–
–	50 to 125 µM	CCC(C)C(NC(=O)c1cc(-c2cc(C(=O)NCc3ccccc3Br)nc(C(=O)N3CCCC3CN(C)C)c2)cc(C(=O)N2CCCC2CN(C)C)n1)C(=O)O (stereo not shown) [Compound 17]	–
–	50 to 125 µM	CCC(C)C(NC(=O)c1cc(-c2cc(C(=O)NCc3ccccc3Br)nc(C(=O)N3CCCC3CN3CCCCC3)c2)cc(C(=O)N2CCCC2CN2CCCCC2)n1)C(=O)O (stereo not shown) [Compound 19]	–

Source: patent US20070249682A1, “Novel CD40:CD154 binding interruptor compounds and use thereof to treat immunological complications” (priority 2000, published 2007)
